Key:
ACE (Sigma, A2580) = biological target: T1, ACE (Sigma, A2580) (Sus scrofa, UniProt F1RRW5); test: ACE enzymatic activity assay; assay type: biochemical, porcine; details: Ki class; compounds tested in 5% DMSO, 12 concentrations
T1 construct: ACE from porcine kidney; purchased Sigma A2580; host or cells: porcine kidney
T1 sequence (F1RRW5 34-1309): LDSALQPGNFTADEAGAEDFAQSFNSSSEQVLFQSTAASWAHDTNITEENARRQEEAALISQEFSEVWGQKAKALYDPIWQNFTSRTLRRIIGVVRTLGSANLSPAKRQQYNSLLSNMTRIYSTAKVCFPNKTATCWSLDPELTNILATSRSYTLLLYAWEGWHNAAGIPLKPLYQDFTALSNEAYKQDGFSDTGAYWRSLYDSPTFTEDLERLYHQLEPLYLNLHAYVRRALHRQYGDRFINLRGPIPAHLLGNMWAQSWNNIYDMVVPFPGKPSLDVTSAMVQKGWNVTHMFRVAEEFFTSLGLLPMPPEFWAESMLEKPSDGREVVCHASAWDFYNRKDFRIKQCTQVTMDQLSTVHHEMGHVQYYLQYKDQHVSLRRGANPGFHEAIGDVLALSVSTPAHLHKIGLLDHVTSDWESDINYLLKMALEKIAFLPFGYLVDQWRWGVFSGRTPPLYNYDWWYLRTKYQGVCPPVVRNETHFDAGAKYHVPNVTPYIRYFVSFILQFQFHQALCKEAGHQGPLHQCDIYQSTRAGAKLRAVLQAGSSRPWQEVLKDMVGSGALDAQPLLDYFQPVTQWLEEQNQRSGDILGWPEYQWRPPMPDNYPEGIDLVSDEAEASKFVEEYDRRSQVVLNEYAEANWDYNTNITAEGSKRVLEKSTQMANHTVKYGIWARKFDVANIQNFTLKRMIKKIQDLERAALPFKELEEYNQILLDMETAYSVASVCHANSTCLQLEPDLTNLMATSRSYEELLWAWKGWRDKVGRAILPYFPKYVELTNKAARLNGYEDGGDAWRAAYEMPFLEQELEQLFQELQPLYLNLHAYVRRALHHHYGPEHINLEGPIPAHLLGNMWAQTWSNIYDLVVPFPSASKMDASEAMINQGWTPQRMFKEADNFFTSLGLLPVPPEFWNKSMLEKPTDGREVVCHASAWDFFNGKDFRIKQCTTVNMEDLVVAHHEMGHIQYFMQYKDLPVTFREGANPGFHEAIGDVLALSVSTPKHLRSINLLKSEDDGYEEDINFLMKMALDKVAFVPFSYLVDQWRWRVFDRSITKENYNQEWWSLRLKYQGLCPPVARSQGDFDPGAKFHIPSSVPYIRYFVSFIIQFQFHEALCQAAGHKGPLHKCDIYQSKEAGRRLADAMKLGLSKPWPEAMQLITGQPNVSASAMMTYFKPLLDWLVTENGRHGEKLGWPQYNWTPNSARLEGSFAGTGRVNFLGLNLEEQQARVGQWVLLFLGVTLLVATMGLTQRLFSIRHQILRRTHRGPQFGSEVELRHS
Outline: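 Fluorogenic substrate cleavage by 1 nM ACE, read at 320/405 nm after EDTA stop at ~30 min. Reactions at 25 °C, pH 7.5, in HEPES/NaCl/Brij-35 buffer; compounds tested at 12 concentrations in 5% DMSO.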

Carboxypeptidase A = biological target: T2, Carboxypeptidase A (Bos taurus, UniProt P00730); test: Carboxypeptidase A activity assay; assay type: biochemical; details: Ki class; compounds tested in 5% DMSO, 12 concentrations
T2 sequence (P00730 111-419): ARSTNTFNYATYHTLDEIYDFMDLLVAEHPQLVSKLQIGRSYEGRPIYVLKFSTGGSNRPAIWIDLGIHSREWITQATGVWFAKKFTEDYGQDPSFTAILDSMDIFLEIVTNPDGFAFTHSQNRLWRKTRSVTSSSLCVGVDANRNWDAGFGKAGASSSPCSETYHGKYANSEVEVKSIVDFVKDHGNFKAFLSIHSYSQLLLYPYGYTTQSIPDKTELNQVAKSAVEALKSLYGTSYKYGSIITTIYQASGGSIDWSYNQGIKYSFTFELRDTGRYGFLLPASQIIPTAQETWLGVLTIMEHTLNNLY
Outline: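 Ki obtained by correcting apparent Ki for substrate, Ki=Kiapp/(1+[S]/Km), from 12-concentration series. Enzyme activity read by absorbance at 328 nm with 5% DMSO present, EDTA stop.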

ACE-2 [1] = biological target: ACE-2 (Rattus norvegicus, UniProt Q5EGZ1); test: ACE-2 Competitive Substrate Assay, rat ACE-2; assay type: biochemical; details: Ki class; compounds tested in 5% DMSO, 12 concentrations
Chain of ACE-2 (Rattus norvegicus, UniProt Q5EGZ1) (Q5EGZ1 18-805): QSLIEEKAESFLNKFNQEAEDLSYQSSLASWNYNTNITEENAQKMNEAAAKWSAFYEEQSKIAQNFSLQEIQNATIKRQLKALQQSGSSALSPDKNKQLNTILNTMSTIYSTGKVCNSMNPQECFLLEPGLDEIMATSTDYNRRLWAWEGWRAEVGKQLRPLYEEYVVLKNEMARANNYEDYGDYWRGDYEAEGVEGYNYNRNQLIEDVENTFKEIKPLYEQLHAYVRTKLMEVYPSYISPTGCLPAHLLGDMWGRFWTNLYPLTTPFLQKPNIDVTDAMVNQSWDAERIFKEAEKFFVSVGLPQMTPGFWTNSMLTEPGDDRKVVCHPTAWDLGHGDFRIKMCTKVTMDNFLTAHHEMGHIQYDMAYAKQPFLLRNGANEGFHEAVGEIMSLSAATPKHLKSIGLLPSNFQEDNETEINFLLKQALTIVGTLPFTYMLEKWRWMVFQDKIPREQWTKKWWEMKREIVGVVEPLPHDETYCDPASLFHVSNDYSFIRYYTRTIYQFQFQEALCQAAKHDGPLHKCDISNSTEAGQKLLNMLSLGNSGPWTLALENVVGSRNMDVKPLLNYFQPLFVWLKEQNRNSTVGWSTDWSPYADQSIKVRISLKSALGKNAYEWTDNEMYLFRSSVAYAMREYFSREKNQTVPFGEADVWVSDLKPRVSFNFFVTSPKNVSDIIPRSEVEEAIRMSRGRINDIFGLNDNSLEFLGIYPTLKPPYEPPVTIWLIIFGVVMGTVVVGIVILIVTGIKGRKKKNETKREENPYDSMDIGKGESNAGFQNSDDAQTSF

ACE-2 [2] = biological target: T3, ACE-2 (Homo sapiens, UniProt Q9BYF1); test: ACE-2 Competitive Substrate Assay (ACS Assay); assay type: biochemical; details: Ki class; compounds tested in 5% DMSO, 12 concentrations; read-out: Human ACE-2 Activity
T3 construct: a stop codon inserted after the serine immediately preceding the transmembrane domain; made in house; host or cells: CHO K1 cells (transient transfection, purified from conditioned medium)
T3 sequence (Q9BYF1 18-740 limits assumed): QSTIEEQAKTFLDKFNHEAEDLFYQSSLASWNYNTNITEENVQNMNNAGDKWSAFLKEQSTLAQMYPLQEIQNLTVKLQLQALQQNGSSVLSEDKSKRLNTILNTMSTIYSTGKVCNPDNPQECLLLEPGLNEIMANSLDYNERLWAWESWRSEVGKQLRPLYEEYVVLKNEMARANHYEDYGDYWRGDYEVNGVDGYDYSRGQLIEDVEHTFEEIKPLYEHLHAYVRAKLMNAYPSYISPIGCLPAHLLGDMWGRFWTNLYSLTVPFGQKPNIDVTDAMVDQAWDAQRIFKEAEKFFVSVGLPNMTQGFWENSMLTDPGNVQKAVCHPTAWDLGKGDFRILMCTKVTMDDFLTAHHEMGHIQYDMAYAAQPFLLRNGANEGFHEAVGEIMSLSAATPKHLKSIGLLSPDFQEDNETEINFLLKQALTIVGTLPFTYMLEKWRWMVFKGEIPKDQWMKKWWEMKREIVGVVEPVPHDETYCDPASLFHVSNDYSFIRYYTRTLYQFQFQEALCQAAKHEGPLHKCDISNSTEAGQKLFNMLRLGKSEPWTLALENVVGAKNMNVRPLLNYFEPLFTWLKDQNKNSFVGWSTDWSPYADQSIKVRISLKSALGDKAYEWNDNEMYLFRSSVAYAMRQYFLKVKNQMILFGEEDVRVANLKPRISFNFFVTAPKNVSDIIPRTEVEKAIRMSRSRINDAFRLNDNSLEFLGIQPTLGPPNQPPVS

CC(C)CC(N[C@H](Cc1c[nH]cn1)C(=O)O)C(=O)O (stereo partly drawn) [BB, 2-[1-Carboxy-2-(1H-imidazol-4-yl)-ethylamino]4-methyl-pentanoic acid]
Ki (ACE (Sigma, A2580)): < 10 µM | Ki (Carboxypeptidase A): > 50 µM | Ki (ACE-2 [1]): > 500 nM | Ki (ACE-2 [2]): > 500 nM

CCCC(N[C@H](Cc1c[nH]cn1)C(=O)O)C(=O)O (stereo partly drawn) [BC, 2-[1-Carboxy-2-(1H-imidazol-4-yl)-ethylamino]pentanoic-acid]
Ki (ACE (Sigma, A2580)): 10 to 50 µM | Ki (Carboxypeptidase A): > 50 µM | Ki (ACE-2 [1]): > 500 nM | Ki (ACE-2 [2]): > 500 nM

CC(N[C@H](Cc1c[nH]cn1)C(=O)O)C(=O)O (stereo partly drawn) [BD, 2-(1-carboxy-ethylamino)-3-(1H-imidazol-4-yl)-propionic acid]
Ki (ACE (Sigma, A2580)): > 50 µM | Ki (Carboxypeptidase A): > 50 µM | Ki (ACE-2 [1]): > 500 nM | Ki (ACE-2 [2]): > 500 nM

CC(C)CC(NC(Cc1ccccn1)C(=O)O)C(=O)O (stereo not drawn) [BF, 2-(1-Carboxy-2-pyridin-2-yl-ethylamino)-4-methyl-pentanoic acid]
Ki (ACE (Sigma, A2580)): > 50 µM | Ki (Carboxypeptidase A): > 50 µM | Ki (ACE-2 [1]): 100 to 500 nM | Ki (ACE-2 [2]): > 500 nM

COc1ccc(C(N[C@@H](CC(C)C)C(=O)O)C(=O)O)cc1 (stereo partly drawn) [BQ, 2-[(Carboxy-(4-methoxy-phenyl)-methyl]-amino]-4-methyl-pentanoic acid]
Ki (ACE (Sigma, A2580)): > 50 µM | Ki (Carboxypeptidase A): > 50 µM | Ki (ACE-2 [1]): > 500 nM | Ki (ACE-2 [2]): > 500 nM

CC(C)C[C@H](NC(C(=O)O)c1ccc2ccccc2c1)C(=O)O (stereo partly drawn) [BR, 2-[(Carboxy-naphthalen-2-yl-methyl)-amino]-4-methyl-pentanoic acid]
Ki (ACE (Sigma, A2580)): > 50 µM | Ki (Carboxypeptidase A): > 50 µM | Ki (ACE-2 [1]): > 500 nM | Ki (ACE-2 [2]): > 500 nM

CC(C)C[C@@H](N[C@H](C(=O)O)c1ccccc1)C(=O)O [BS, 2-[(Carboxy-phenyl-methyl)-amino]-4-methyl-pentanoic acid]
Ki (ACE (Sigma, A2580)): > 50 µM | Ki (Carboxypeptidase A): > 50 µM | Ki (ACE-2 [1]): > 500 nM | Ki (ACE-2 [2]): > 500 nM

CC(C)C[C@@H](N[C@@H](C(=O)O)c1ccccc1)C(=O)O [BT, 2-[(Carboxy-phenyl-methyl)-amino]-4-methyl-pentanoic acid]
Ki (ACE (Sigma, A2580)): > 50 µM | Ki (Carboxypeptidase A): > 50 µM | Ki (ACE-2 [1]): > 500 nM | Ki (ACE-2 [2]): > 500 nM

NCCCC[C@H](NC(CCc1ccccc1)C(=O)O)C(=O)O (stereo partly drawn) [BU, 6-Amino-2-(1-carboxy-3-phenyl-propylamino)-hexanoic acid]
Ki (ACE (Sigma, A2580)): > 50 µM | Ki (Carboxypeptidase A): > 50 µM | Ki (ACE-2 [1]): > 500 nM | Ki (ACE-2 [2]): > 500 nM

CC(C)CC(N[C@@H](Cc1cn(Cc2ccccc2)cn1)C(=O)O)C(=O)O (stereo partly drawn) [BV, 2-[2-(1-Benzyl-1H-imidazol-4-yl)-1-carboxy-ethylamino]-4-methyl-pentanoic acid]
Ki (ACE (Sigma, A2580)): 10 to 50 µM | Ki (Carboxypeptidase A): < 10 µM | Ki (ACE-2 [1]): > 500 nM | Ki (ACE-2 [2]): > 500 nM

CC(C)C[C@H](N[C@@H](Cc1ccccc1)C(=O)O)C(=O)O [BW, 2-(1-Carboxy-2-phenyl-ethylamino)-4-methyl-pentanoic acid]
Ki (ACE (Sigma, A2580)): > 50 µM | Ki (Carboxypeptidase A): 10 to 50 µM | Ki (ACE-2 [1]): 100 to 500 nM | Ki (ACE-2 [2]): > 500 nM

CC(C)CC(N[C@H](Cc1cn(C)cn1)C(=O)O)C(=O)O (stereo partly drawn) [CA, 2-[-Carboxy-2-(1-methyl-1H-imidazol-4-yl)-ethylamino]-4-methyl-pentanoic acid]
Ki (ACE (Sigma, A2580)): > 50 µM | Ki (Carboxypeptidase A): > 50 µM | Ki (ACE-2 [1]): > 500 nM | Ki (ACE-2 [2]): > 500 nM

— patent publication US7045532B2 (Millennium Pharmaceuticals, Inc., priority 1999, dated 2006)
